Drawing on US7632952B2, “Benzothiazoles and the use thereof as medicaments” (Aventis Pharma S.A., priority 2004, dated 2009), this text covers IC50 for 11 molecules.

Counter-ions that a name gives are not always drawn. Like-named read-outs stand apart in the source and are kept apart here.

For one assay, the target named is CDK4/cyclin D1 (Homo sapiens, UniProt P11802). As to the kind of experiment: CDK4/cyclin D1 Flashplate test in 96-well format. The assay is classed as biochemical. As for the experimental part: 2. CDK4/cyclin D1 Protocol:
Purification of the CDK4-HA/cyclin D1-(His)6 Complex by IMAC (Immobilized Metal Affinity Chromatography):
Two recombinant baculoviruses bearing the human sequences coding, respectively, for CDK4-HA (C-terminal fusion with the hemaglutinin tag) and for cyclin D1-(His)6 are used to coinfect insect Sf9 cells. Sixty hours after the start of the coinfection, the cells are harvested by centrifugation and then frozen at −20° C. until the time of use.
CDK4/cyclin D1 Flashplate Test in 96-Well Format
A test in 96-well “Flashplate” plates coated with streptavidin is used to evaluate the inhibition of the CDK4/cyclin D1 kinase complex by the products of the invention. To perform this test, the biotinylated peptide substrate, a fragment of the pRb protein (biotinyl-[…]-amide) is dissolved at a concentration of 2 mM in kinase buffer (HEPES/NaOH 50 mM, NaCl 1 mM, MgCl2 5 mM, pH 7.5) in order to constitute a stock solution stored at −20° C. in the form of 110 μl aliquots. On the day of the experiment, an aliquot of this solution is thawed and diluted in kinase buffer containing 1 mM of dithiothreitol, and added to the buffer extemporaneously, in order to obtain a final peptide concentration of 2.571 μM. 70 μl of this solution are added to each well of the Flashplate in order to obtain a final substrate concentration of 1.8 μM during the enzymatic reaction, performed in a final volume of the reaction medium of 100 μl (cf. below). Intermediate dilutions of inhibitors (products of the invention) at various concentrations are prepared in DMSO from stock solutions at 10 mM in separate tubes. 1000 μM, 333.3 μM, 111.1 μM, 37.03 μM, 12.35 μM, 4.11 μM and 1.37 μM dilutions are thus prepared. 1 μl of each of these solutions (or 1 μl of DMSO for the controls) is then transferred into the wells of the test plate. Into each well are then added 19 μl of a solution of a mixture of adenosine triphosphate (ATP) and of ATPy^33P in the kinase buffer at a concentration of 5.26 μM of ATP total and 78.9 μCi/ml of ^33P. The enzymatic reaction is triggered by addition of 10 μl per well of a solution of CDK4/cyclin D1 at 250 nM in the kinase buffer containing 1 mM of dithiothreitol (or 10 μl of kinase buffer containing 1 mM of dithiothreitol for the reaction blanks).
After addition of all the reagents, the test plate is incubated at 30° C. with orbital stirring at 650 rpm. After the incubation, the plate is washed three times with 300 μl per well of PBS (phosphate-buffered saline, pH=7.4, without calcium or magnesium, reference 10010-015, Gibco BRL). The incorporation of ^33P into the substrate peptide is quantified by scintillation counting using a Packard Topcount.NXT machine. The inhibitory activity of the products of the invention is evaluated by measuring the inhibitory concentration that allows a 50% reduction in the enzymatic activity (IC50).

The next assay concerns the target CDK2/cyclin E (Homo sapiens, UniProt P24941). As to the kind of experiment: CDK2/cyclin E Flashplate test in 96-well format. The assay is classed as biochemical. As for the experimental part:
1. Protocol CDK2/cyclin E:
Purification of the CDK2/cyclin E-(His)6 Complex by IMAC (Immobilized Metal Affinity Chromatography):
Two recombinant baculoviruses bearing the human sequences coding, respectively, for CDK2 and cyclin E (the latter comprising a C-terminal hexahistidine tag) are used to coinfect insect Sf21 cells. Two to three days after the start of coinfection, the cells are harvested by centrifugation and then stored at −40° C. until the time of use. After thawing and mechanical lysis of the cells, the complex present in the lysis supernatant is purified by affinity chromatography on nickel (IMAC), and stored at −80° C.
CDK2/cyclin E Flashplate Test in 96-Well Format
A format in 96-well plates coated with streptavidin is used to test the activity of the compounds on the kinase activity of CDK2/cyclin E.
To perform this test, the biotinylated peptide substrate, a fragment of the pRb protein (biotinyl-[…]-OH) is dissolved at a concentration of 1 mM in kinase buffer (HEPES/NaOH 50 mM, NaCl 1 mM, MgCl2 5 mM, pH 7.5) in order to constitute a stock solution stored at −20° C. in the form of 110 μl aliquots. On the day of the experiment, an aliquot of this solution is thawed and diluted in kinase buffer containing 1 mM of dithiothreitol, and added to the buffer extemporaneously, in order to obtain a concentration of 14.3 μM. 70 μl of this solution are added to each well of the Flashplate in order to obtain a final substrate concentration of 10 μM during the enzymatic reaction, performed in a final volume of the reaction medium of 100 μl (cf. below).
Intermediate dilutions of inhibitors (products of the invention) at various concentrations are prepared in DMSO from stock solutions at 10 mM in separate tubes. 1000 μM, 333.3 μM, 111.1 μM, 37.03 μM, 12.35 μM, 4.11 μM and 1.37 μM dilutions are thus prepared. 1 μl of each of these solutions (or 1 μl of DMSO for the controls) is transferred into the wells of the test plate.
Into each well are then added 19 μl of a solution of a mixture of adenosine triphosphate (ATP) and of ATPy^33P in the kinase buffer at a concentration of 5.26 μM of ATP total and 52.6 μCi/ml of ^33P. The enzymatic reaction is triggered by addition of 10 μl per well of a solution of CDK2/cyclin E at 200 nM in the kinase buffer containing 1 mM of dithiothreitol (or 10 μl of kinase buffer containing 1 mM of dithiothreitol for the reaction blanks).
After addition of all the reagents, the plate is incubated at 30° C. with orbital stirring at 650 rpm.
When the incubation is complete, the plate is washed three times with 300 μl per well of PBS (phosphate-buffered saline, pH=7.4, without calcium or magnesium, reference 10010-015, Gibco BRL). The incorporation of ^33P into the peptide is quantified by scintillation counting using a Packard Topcount.NXT machine. The inhibitory activity of the products of the invention is evaluated by measuring the inhibitory concentration that allows a 50% reduction in the enzymatic activity (IC50).

Sequence of CDK4/cyclin D1 (P11802 whole entry): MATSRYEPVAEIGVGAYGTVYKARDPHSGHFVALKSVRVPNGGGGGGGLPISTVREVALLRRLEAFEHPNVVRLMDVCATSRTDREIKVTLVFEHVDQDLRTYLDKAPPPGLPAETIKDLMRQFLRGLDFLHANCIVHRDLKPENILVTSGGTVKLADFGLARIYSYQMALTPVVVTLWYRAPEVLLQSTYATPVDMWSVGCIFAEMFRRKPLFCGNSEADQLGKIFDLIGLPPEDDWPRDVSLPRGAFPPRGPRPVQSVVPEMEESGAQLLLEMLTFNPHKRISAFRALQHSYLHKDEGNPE
Sequence of CDK4/cyclin D1 (P24385 whole entry partner): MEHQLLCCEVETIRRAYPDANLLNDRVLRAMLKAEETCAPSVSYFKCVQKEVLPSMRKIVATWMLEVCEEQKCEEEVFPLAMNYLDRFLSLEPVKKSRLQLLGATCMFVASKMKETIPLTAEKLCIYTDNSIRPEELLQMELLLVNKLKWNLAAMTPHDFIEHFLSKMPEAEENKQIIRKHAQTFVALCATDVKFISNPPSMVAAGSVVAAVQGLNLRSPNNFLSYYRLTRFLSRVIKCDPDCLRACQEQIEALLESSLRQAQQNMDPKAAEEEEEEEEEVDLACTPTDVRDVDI

As a reminder, the IC50 is the concentration that inhibits the measured activity by half. Consider `CC(C)(O)CNc1ccc(S(=O)(=O)Oc2ccc3nc(NC(=O)C4CCNCC4)sc3c2)cc1` [Example 5, 4-(2-hydroxy-2-methylpropylamino)benzene-sulfonic acid 2-[(piperidine-4-carbonyl)amino]benzothiazol-6-yl ester], for which the IC50 came out at 3970 nM on CDK4/cyclin D1 and 995 nM on CDK2/cyclin E (read-out: CDK2 IC50).
On the same counts, the results for `CC(C)NCCNc1ccc(S(=O)(=O)Oc2ccc3nc(NC(=O)CC4CCNCC4)sc3c2)cc1` [Example 18, 4-(2-isopropylaminoethylamino)benzenesulfonic acid 2-(2-piperid-4-ylacetylamino)benzothiazol-6-yl ester hydrochloride] are 480 nM and 2680 nM.
The like results for `O=C(CC1CCNCC1)Nc1nc2ccc(OS(=O)(=O)c3ccc(NCCCn4ccnc4)cc3)cc2s1` [Example 19a, 4-(3-Imidazol-1-ylpropyl-amino)benzenesulfonic acid 2-(2-piperid-4-ylacetyl-amino)benzothiazol-6-yl ester hydrochloride] were, in that order, 471 nM and 2720 nM.
The like results for `CCNCCNc1ccc(S(=O)(=O)Oc2ccc3nc(NC(=O)CC4CCNCC4)sc3c2)cc1` [Example 19b, 4-(2-Ethylaminoethyl-amino)benzenesulfonic acid 2-(2-piperid-4-ylacetyl-amino)benzothiazol-6-yl ester hydrochloride] were, in that order, 732 nM and 5470 nM.
As to `O=C(CC1CCNCC1)Nc1nc2ccc(OS(=O)(=O)c3ccc(NCCNCCO)cc3)cc2s1` [Example 19c, 4-[2-(2-Hydroxyethyl-amino)ethylamino]benzene-sulfonic acid 2-(2-piperid-4-ylacetylamino)benzo-thiazol-6-yl ester hydro-chloride], the results for the half-maximal inhibitory concentration (IC50) against CDK4/cyclin D1 and on CDK2/cyclin E (read-out: CDK2 IC50) were 1220 nM and 5780 nM, respectively.
The like results for `CCNCCNc1ccc(S(=O)(=O)Oc2ccc3nc(NC(=O)CCCCCCCN)sc3c2)cc1` [Example 22b, 4-(2-ethylaminoethyl-amino)benzene sulfonic acid 2-(8-aminooctanoyl-amino)benzothiazol-6-yl ester] were, in that order, 783 nM and 547 nM.
On the same counts, the results for `NCCCCCCCC(=O)Nc1nc2ccc(OS(=O)(=O)c3ccc(NCCNCCO)cc3)cc2s1` [Example 22c, 4-[2-(2-hydroxyethyl-amino)ethylamino]benzene-sulfonic acid 2-(8-amino-octanoylamino)benzo-thiazol-6-yl ester hydro-chloride] are 1570 nM and 1100 nM.
The like results for `NCC(=O)Nc1nc2ccc(OS(=O)(=O)c3cccs3)cc2s1` [Example 33b, Thiophene-2-sulfonic acid 2-(2-amino-acetylamino)benzothiazol-6-yl ester; compound with trifluoroacetic acid] were, in that order, more than 10000 nM and 6340 nM.
In the case of `CNCC(=O)Nc1nc2ccc(OS(=O)(=O)c3cccs3)cc2s1` [Example 33c, Thiophene-2-sulfonic acid 2-(2-methylamino-acetylamino)benzothiazol-6-yl ester; compound with trifluoroacetic acid], the results for the half-maximal inhibitory concentration (IC50) on CDK4/cyclin D1 and on CDK2/cyclin E (read-out: CDK2 IC50) were more than 10000 nM and 8270 nM, respectively.
On the same counts, the results for `NCCC(=O)Nc1nc2ccc(OS(=O)(=O)c3cccs3)cc2s1` [Example 33d, Thiophene-2-sulfonic acid 2-(3-amino-propionylamino)benzothiazol-6-yl ester; compound with trifluoroacetic acid] are 8270 nM and 2950 nM.
As for `CC1(C)CC(Nc2ccc(S(=O)(=O)Oc3ccc4nc(NC(=O)C5CC5)sc4c3)cc2)CC(C)(C)N1[O]` [Example 87, 4-(1-oxyl-2,2,6,6-tetramethylpiperidin-4-ylamino)-benzenesulfonic acid 2-(cyclopropanecarbonylamino)benzothiazol-6-yl ester], at CDK2/cyclin E, the IC50 was found to be 809 nM.
